Assays:
[1] = system: HBeAg (surrogate marker for cccDNA) in HepDES19 cells; assay: Engineered HepDES19 primary screen assay (HBeAg ELISA); type: cell-based, HBV; conditions: Hepatitis B virus, HepDES19, 120 h, read-out: IC50 (HBeAg level, HepDES19 primary screen assay), HepDES19 cells, 5 days compound incubation, HBeAg ELISA
From the text: The assay was employed to screen for novel cccDNA inhibitors. HepDES19 is a cccDNA-producing cell line. In this cell line, HBeAg in the cell culture supernatant as surrogate marker, as HBeAg production depends on cccDNA level and activity. HepDES19 is an engineered cell line which contains a 1.1 unit length HBV genome, and pgRNA transcription from the transgene is controlled by Tetracycline (Tet). In the absence of Tet, pgRNA transcription will be induced, but HBV e antigen (HBeAg) could not be produced from this pgRNA due to very short leader sequence before the HBeAg start codon and the start codon is disrupted. Only after cccDNA is formed, the missing leader sequence and start codon mutation would be restored from the 3′-terminal redundancy of pgRNA, and then HBeAg could be synthesized. Therefore, HBeAg could be used as a surrogate marker for cccDNA (Zhou, T. et al., Antiviral Res. (2006), 72(2), 116-124; Guo, H. et al., J. Virol. (2007), 81(22), 12472-12484).
HepDES19 cells were seeded at 2×10^6 cells per T150 flask and cultured with the culture medium (Dulbecco's Modified Eagle Medium: Nutrient Mixture F-12 [DMEM-F12, Gibco Cat. 11320-82], 10% Fetal Bovine Serum [FBS, Clontech Cat. 631101], 0.1 mM Non-Essential Amino Acids Solution [NEAA, Gibco Cat. 11140-050], 50 μg/mL Penicillin-Streptomycin [PS, Invitrogen Cat. 15140-163], 500 μg/mL Geneticin [G418, Invitrogen Cat. 10131-027]) containing 3 μg/mL Tet (Sigma, Cat. 87128) for 5 days. Cells were then seeded at 4×10^6 cells per T150 in the same culture medium as described above in the absence of Tet for 8 days. Cells were then harvested and frozen at density of 2×10^6 cells per mL. For compound testing, the frozen cells were thawed and seeded into 96-well plates at a density of 6×10^4 cells per well. At 24 hours after seeding, half log serial dilutions of compounds made with Dimethyl sulfoxide (DMSO, Sigma, Cat. D2650) were further diluted with the same culture medium as described above before they were added to the cells to reach desired final compound concentrations and 1% DMSO concentration. Plates were then incubated at 37° C. for another 5 days before measurement of HBeAg level and cell viability. […] HBeAg level were measured with enzyme-linked immunosorbent assay (ELISA) kit (Shanghai Kehua Diagnostic Medical Products Co., Ltd). Cell viability was assessed using Cell Counting Kit-8 (DonJindo, Cat. CK04-20). IC50 values were derived from the dose-response curve using 4 parameter logistic curve fit method.
The compounds of the present invention were tested for their capacity to inhibit extracellular HBeAg level as described herein.

[2] = Human microsome stability assay; type: in vitro ADME; conditions: human liver microsomes, 1 μM test compound, 0.5 mg/mL microsomal protein, 37° C., pH 7.4, 0-30 minutes
Description: The human microsomal stability assay is used for early assessment of metabolic stability of a test compound in human liver microsomes.
Human liver microsomes (Cat. NO.: 452117, Corning, USA; Cat. NO.: H2610, Xenotech, USA) were preincubated with test compound for 10 minutes at 37° C. in 100 mM potassium phosphate buffer, pH 7.4. The reactions were initiated by adding NADPH regenerating system. The final incubation mixtures contained 1 μM test compound, 0.5 mg/mL liver microsomal protein, 1 mM MgCl2, 1 mM NADP, 1 unit/mL isocitric dehydrogenase and 6 mM isocitric acid in 100 mM potassium phosphate buffer, pH 7.4. After incubation times of 0, 3, 6, 9, 15 and 30 minutes at 37° C., 300 μL of cold ACN (including internal standard) was added to 100 μL incubation mixture to terminate the reaction. Following precipitation and centrifugation, the amount of compound remaining in the samples was determined by LC-MS/MS. Controls of no NADPH regenerating system at zero and 30 minutes were also prepared and analyzed.

Row | SMILES | IC50 [1] [µM] | Clearance of Human microsome [2] [mL/min/kg]
1 | O=C(O)CCOc1cc(C(F)(F)F)ccc1-c1cc(=O)c2ccc(F)c(Cl)c2o1 [Example A031, 3-[2-(8-chloro-7-fluoro-4-oxo-chromen-2-yl)-5-(trifluoromethyl)phenoxy]propanoic acid] | 0.377 | 6.15
2 | COc1cc(O[C@H]2C[C@@H](C(=O)NS(=O)(=O)C3CC3)C2)c(-c2cc(=O)c3cccc(Cl)c3o2)cc1Br [Example B056-A, Cis-3-[4-bromo-2-(8-chloro-4-oxo-chromen-2-yl)-5-methoxy-phenoxy]-N-cyclopropylsulfonyl-cyclobutanecarboxamide] | 9.44 | 6.48
3 | CCOc1cc(OCCO[C@H]2C[C@@H](C(=O)O)C2)c(-c2cc(=O)c3cccc(Cl)c3o2)cc1OCC [Example C088, Cis-3-[2-[2-(8-chloro-4-oxo-chromen-2-yl)-4,5-diethoxy-phenoxy]ethoxy]cyclobutanecarboxylic acid] | 10.3 | 6.15
4 | COc1cc(-c2cc(=O)c3cccc(Cl)c3o2)c(OCCOCC(=O)O)cc1Br [Example C020, 2-[2-[5-bromo-2-(8-chloro-4-oxo-chromen-2-yl)-4-methoxy-phenoxy]ethoxy]acetic acid] | 5.55 | 6.15
5 | O=C(COc1cc(C(F)(F)F)ccc1-c1cc(=O)c2cccc(Cl)c2o1)NC1CC(C(=O)O)C1 (stereo not drawn) [Example A074, 3-[[2-[2-(8-chloro-4-oxo-chromen-2-yl)-5-(trifluoromethyl)phenoxy]acetyl]amino]cyclobutanecarboxylic acid] | 2.38 | 6.15
6 | O=c1cc(-c2cc3c(cc2OCCO[C@H]2C[C@@H](C(=O)O)C2)OCCO3)oc2c(Cl)cccc12 [Example C074, Cis-3-[2-[[7-(8-chloro-4-oxo-chromen-2-yl)-2,3-dihydro-1,4-benzodioxin-6-yl]oxy]ethoxy]cyclobutanecarboxylic acid] | 7.28 | 6.15
7 | COc1cc(-c2cc(=O)c3cccc(Cl)c3o2)c(OCCC(=O)O)cc1C [Example A015, 3-[2-(8-chloro-4-oxo-chromen-2-yl)-4-methoxy-5-methyl-phenoxy]propanoic acid] | 11.1 | 6.15
8 | Cc1ccc(-c2cc(=O)c3cccc(Cl)c3o2)c(OCC(=O)N2CCC[C@@H]2C(=O)NS(C)(=O)=O)c1 [Example A094, (2R)-1-[2-[2-(8-chloro-4-oxo-chromen-2-yl)-5-methyl-phenoxy]acetyl]-N-methylsulfonyl-pyrrolidine-2-carboxamide] | 0.858 | 6.15
9 | COc1cc(OCCO[C@H]2C[C@@H](C(=O)O)C2)c(-c2cc(=O)c3cccc(Cl)c3o2)cc1O [Example C083, cis-3-[2-[2-(8-chloro-4-oxo-chromen-2-yl)-4-hydroxy-5-methoxy-phenoxy]ethoxy]cyclobutanecarboxylic acid] | 4.59 | 6.15
10 | COc1cc(OCCOCC(=O)O)c(-c2cc(=O)c3cccc(Cl)c3o2)cc1OC [Example C022, 2-[2-[2-(8-chloro-4-oxo-chromen-2-yl)-4,5-dimethoxy-phenoxy]ethoxy]acetic acid] | 5.53 | 6.15
11 | O=C(COCCCOc1cc(C(F)(F)F)ccc1-c1cc(=O)c2cccc(Cl)c2o1)NS(=O)(=O)C1CC1 [Example C117, 2-[3-[2-(8-chloro-4-oxo-chromen-2-yl)-5-(trifluoromethyl)phenoxy]propoxy]-N-cyclopropylsulfonyl-acetamide] | 2.52 | 7.45
12 | CCOc1ccc(OCCO[C@H]2C[C@H](C(=O)O)C2)c(-c2cc(=O)c3cccc(Cl)c3o2)c1 [Example C051-B, Trans-3-[2-[2-(8-chloro-4-oxo-chromen-2-yl)-4-ethoxy-phenoxy]ethoxy]cyclobutanecarboxylic acid] | 9.41 | 7.85
13 | CC(C)(COc1cc(OC(F)(F)F)ccc1-c1cc(=O)c2cccc(Cl)c2o1)C(=O)O [Example A061, 3-[2-(8-chloro-4-oxo-chromen-2-yl)-5-(trifluoromethoxy)phenoxy]-2,2-dimethyl-propanoic acid] | 15.9 | 8.78
14 | CC(C)(COc1cc(Br)ccc1-c1cc(=O)c2cccc(Cl)c2o1)CO[C@H]1C[C@H](C(=O)O)C1 [Example C110-B, trans-3-[3-[5-bromo-2-(8-chloro-4-oxo-chromen-2-yl)phenoxy]-2,2-dimethyl-propoxy]cyclobutanecarboxylic acid] | 3.74 | 6.15
15 | CC1(C)C(=O)Nc2cc(-c3cc(=O)c4cccc(Cl)c4o3)c(OCCO[C@H]3C[C@@H](C(=O)O)C3)cc21 [Example C092, cis-3-[2-[6-(8-chloro-4-oxo-chromen-2-yl)-3,3-dimethyl-2-oxo-indolin-5-yl]oxyethoxy]cyclobutanecarboxylic acid] | 11.2 | 6.15
16 | O=c1cc(-c2ccccc2O[C@H]2C[C@H](C(=O)O)C2)oc2c(Br)cccc12 [Example B022-B, Trans-3-[2-(8-bromo-4-oxo-chromen-2-yl)phenoxy]cyclobutanecarboxylic acid] | 0.141 | 6.15
17 | Cc1cc(-c2cc(=O)c3cccc(Cl)c3o2)c(OCC(=O)O)cc1Br [Example A073, 2-[5-bromo-2-(8-chloro-4-oxo-chromen-2-yl)-4-methyl-phenoxy]acetic acid] | – | 6.15
18 | CCNS(=O)(=O)N[C@@H](COc1cc(C(F)(F)F)ccc1-c1cc(=O)c2cccc(Cl)c2o1)C(=O)OC [Example A098, methyl (2S)-3-[2-(8-chloro-4-oxo-chromen-2-yl)-5-(trifluoromethyl)phenoxy]-2-(ethylsulfamoylamino)propanoate] | 0.036 | –
19 | O=C(O)c1cccc(OCCOc2cc(Br)ccc2-c2cc(=O)c3cccc(Cl)c3o2)c1 [Example C108, 3-[2-[5-bromo-2-(8-chloro-4-oxo-chromen-2-yl)phenoxy]ethoxy]benzoic acid] | 1.25 | –
20 | Cc1ccc(-c2cc(=O)c3c(O)ccc(Cl)c3o2)c(O[C@H]2C[C@H](C(=O)O)C2)c1 [Example B037-B, Trans-3-[2-(8-chloro-5-hydroxy-4-oxo-chromen-2-yl)-5-methyl-phenoxy]cyclobutanecarboxylic acid] | 0.149 | –
21 | O=C(O)C1CC(OCCOc2cc(Cl)ccc2-c2cc(=O)c3cccc(Cl)c3o2)C1 (stereo not drawn) [Example C004, 3-[2-[5-chloro-2-(8-chloro-4-oxo-chromen-2-yl)phenoxy]ethoxy]cyclobutanecarboxylic acid] | 1.32 | –
22 | Cc1cc(-c2cc(=O)c3cccc(Cl)c3o2)c(O[C@H]2C[C@H](C(=O)NS(C)(=O)=O)C2)cc1Br [Example B049-B, Trans-3-[5-bromo-2-(8-chloro-4-oxo-chromen-2-yl) 4-methyl-phenoxy]-N-methylsulfonyl-cyclobutanecarboxamide] | 8.74 | –
23 | O=c1cc(-c2cc(Br)ccc2OCCO[C@H]2C[C@H](C(=O)O)C2)oc2c(Cl)cc(F)cc12 [Example C053-B, Trans-3-[2-[4-bromo-2-(8-chloro-6-fluoro-4-oxo-chromen-2-yl)phenoxy]ethoxy]cyclobutanecarboxylic acid] | 5.59 | –

From US11708344B2, “Flavone derivatives for the treatment and prophylaxis of hepatitis B virus disease” (Hoffmann-La Roche Inc., priority 2018, dated 2023)
